Laboratory results as given in US9822115B2, “Nitrogen containing compounds and their use as antibacterial agents” (WOCKHARDT LIMITED, priority 2014, dated 2017).
Values after ≈ are worked out from the molar mass of the structure shown. Read-outs that look alike come from different tables or passages of the source.

Key:
[1] = test system: E. coli NCTC 13353 (CTX-M15, OXA-1); experiment: Antibacterial activity, MIC by agar dilution (CLSI); format: cell-based; conditions: Escherichia coli, read-out: MIC
Method in brief: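 CLSI agar dilution on Mueller Hinton agar containing doubling compound dilutions, inoculated at about 10^4 CFU/spot from fresh cultures. Plates were incubated 18 h at 37 °C in ambient air before growth scoring. MIC is reported in mcg/ml.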

[2] = test system: K. pneumoniae H521 (KPC, SHV, TEM); experiment: as above; format: cell-based; conditions: Klebsiella pneumoniae, read-out: MIC
Method in brief: (§1)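 Agar dilution per CLSI on Mueller Hinton agar with doubling compound dilutions, about 10^4 CFU/spot by multipoint inoculator. Plates incubated 16-20 h at 35±2° C in ambient air; procedure also gives 37° C for 18 h. MIC (mcg/ml) scored as growth or no growth.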

[3] = molecular target: T1, Class A beta-lactamase, K. pneumoniae ATCC 700603 (SHV 18) (Klebsiella pneumoniae, UniProt P0AD64, E235K/G234A/R39S); experiment: biochemical
T1 construct: preincubated mixture of crude enzyme and the agents; endogenous in cells; host or cells: K. pneumoniae ATCC 700603
T1 sequence (P0AD64 22-286 R39S/G234A/E235K): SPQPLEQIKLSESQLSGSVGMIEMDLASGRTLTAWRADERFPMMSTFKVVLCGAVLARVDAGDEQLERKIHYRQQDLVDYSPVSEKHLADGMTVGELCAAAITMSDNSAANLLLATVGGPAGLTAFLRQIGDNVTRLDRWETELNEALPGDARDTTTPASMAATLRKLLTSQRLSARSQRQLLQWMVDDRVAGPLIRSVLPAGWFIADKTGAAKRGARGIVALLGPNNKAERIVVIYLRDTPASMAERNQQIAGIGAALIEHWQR
Method in brief: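 Crude enzyme preincubated with inhibitor 10 min at 37 °C, then nitrocefin (100 uM) added for 5 min. Absorbance read at 485 nm; IC50 obtained from sigmoidal dose-response fit of absorbance versus concentration.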

E. coli 7 MP = experiment: Antibacterial activity, MIC by agar dilution (CLSI); format: cell-based; conditions: Escherichia coli, Table 3
Procedure: (§2) The biological activity of representative compounds according to the invention against various bacterial strains was investigated. In a typical study, overnight grown bacterial cultures were diluted appropriately and inoculated on the agar media containing doubling dilutions of the test compounds. Observations for growth or no growth was performed after 16-20 hours of incubation at 35±2° C. in the ambient air. The overall procedure was performed as per Clinical and Laboratory Standards Institute (CLSI) recommendations, (Clinical and Laboratory Standards Institute (CLSI), Performance Standards for Antimicrobial Susceptibility Testing, 20th Informational Supplement, M07-A9, Volume 32, No. 2, 2012). Molten Mueller Hinton Agar (BD, USA) containing serial dilutions of each antibacterial agent were poured on to the plates and allowed to solidify. Appropriate suspensions from the freshly grown cultures were prepared in normal saline so that about 10^4 CFU/spot of the organism was delivered on to the drug containing agar plates using automated multipoint inoculator (Mast, UK). The plates were incubated in Biochemical oxygen demand (BOD) incubator at 37° C. for 18 hours and then examined for growth.
(§3) Table 3 details the antibacterial activity of representative compound of Formula (I), Sodium salt of (2S,5R)-Sulfuric acid mono-[2-(N′-(4-hydroxyphenyl-acetyl)-hydrazinocarbonyl)-7-oxo-1,6-diaza-bicyclo[3.2.1]oct-6-yl]ester (Compound of Example 1) and Sodium salt of (2S,5R)-Sulfuric acid mono-[2-(N′-(pyridine-2-yl-acetyl)-hydrazinocarbonyl)-7-oxo-1,6-diaza-bicyclo[3.2.1]oct-6-yl] ester (Compound of Example 8), against various Multi Drug Resistant (MDR) Gram-negative bacterial strains.

P. aeruginosa 2779 = experiment: as above; format: cell-based; conditions: Pseudomonas aeruginosa, Table 3
Procedure: as §2, §3

P. aeruginosa PAO1 = experiment: as above; format: cell-based; conditions: Pseudomonas aeruginosa, Table 3
Procedure: as §2, §3

P. aeruginosa R 20 = experiment: as above; format: cell-based; conditions: Pseudomonas aeruginosa, R20, Table 3
Procedure: as §2, §3

P. aeruginosa ATCC 27853 = experiment: as above; format: cell-based; conditions: Pseudomonas aeruginosa, ATCC27853, Table 3
Procedure: as §2, §3

E. cloacae M 20 = experiment: as above; format: cell-based; conditions: Enterobacter cloacae, M20, Table 3
Procedure: as §2, §3

E. coli M 49 = experiment: as above; format: cell-based; conditions: Escherichia coli, M49, Table 3
Procedure: as §2, §3

E. coli NCTC 13351 = experiment: as above; format: cell-based; conditions: Escherichia coli, NCTC13351, Table 3
Procedure: as §2, §3

K. pneumoniae H 525 = experiment: as above; format: cell-based; conditions: Klebsiella pneumoniae, H525, Table 3
Procedure: as §2, §3

K. pneumoniae B 88 = experiment: as above; format: cell-based; conditions: Klebsiella pneumoniae, B88, Table 3
Procedure: as §2, §3

E. coli M 50 = experiment: as above; format: cell-based; conditions: Escherichia coli, M50, Table 3
Procedure: as §2, §3

C. frundaii 58 MP = experiment: as above; format: cell-based; conditions: Table 3
Procedure: as §2, §3

E. coli NCTC 13352 = experiment: as above; format: cell-based; conditions: Escherichia coli, NCTC13352, Table 3
Procedure: as §2, §3

K. pneumoniae S 21 = experiment: as above; format: cell-based; conditions: Klebsiella pneumoniae, S21, Table 3
Procedure: as §2, §3

[4] = test system: K. pneomoniae S48 (NDM, SHV, TEM); experiment: as above; format: cell-based, K. pneumoniae; conditions: Klebsiella pneumoniae; Table 2; K. pneomoniae S48 (NDM, SHV, TEM); read-out: MIC
Method in brief: as §1

[5] = NCTC13353, Table 2, E. Coli NCTC 13353 (CTX-M15, OXA-1)
[6] = NCTC13353, Table 3, E. coli NCTC 13353
[7] = Table 2, K. pneumoniae H521 (KPC, SHV, TEM)

Compound	MIC [1, 5] [µg/mL]	MIC [1, 6] [µg/mL]	MIC [2, 7] [µg/mL]	MIC ([2]; Table 3, K. pneumoniae H 521) [µg/mL]	IC50 [3] [nM]	MIC (E. coli 7 MP) [µg/mL]	MIC (P. aeruginosa 2779) [µg/mL]	MIC (P. aeruginosa PAO1) [µg/mL]	MIC (P. aeruginosa R 20) [µg/mL]	MIC (P. aeruginosa ATCC 27853) [µg/mL]	MIC (E. cloacae M 20) [µg/mL]	MIC (E. coli M 49) [µg/mL]	MIC (E. coli NCTC 13351) [µg/mL]	MIC (K. pneumoniae H 525) [µg/mL]	MIC (K. pneumoniae B 88) [µg/mL]	MIC (E. coli M 50) [µg/mL]	MIC (C. frundaii 58 MP) [µg/mL]	MIC (E. coli NCTC 13352) [µg/mL]	MIC (K. pneumoniae S 21) [µg/mL]	MIC [4] [µg/mL]
O=C(Cc1ccc(O)cc1)NNC(=O)[C@@H]1CC[C@@H]2CN1C(=O)N2OS(=O)(=O)[O-].[Na+] [Example 1, Sodium Salt of (2S,5R)-Sulfuric Acid mono-[2-(N′-(4-hydroxyphenyl-acetyl)-hydrazinocarbonyl)-7-oxo-1,6-diaza-bicyclo[3.2.1]oct-6-yl]ester]	0.5	0.5	1	1	103	1	> 32	> 32	> 32	> 32	1	2	0.25	0.5	0.5	0.5	32	0.25	2	0.5
NCCOc1ccccc1CC(=O)NNC(=O)[C@@H]1CC[C@@H]2CN1C(=O)N2OS(=O)(=O)O [Example 2, (2S,5R)-Sulfuric Acid mono-[2-(N′-{2-[2-(2-amino-ethoxy)-phenyl]-acetyl}-hydrazinocarbonyl)-7-oxo-1,6-diaza-bicyclo[3.2.1]oct-6-yl]ester]	1 (≈ 2.19 µM)	0.5 (≈ 1.09 µM)	1 (≈ 2.19 µM)	2 (≈ 4.37 µM)	119	2 (≈ 4.37 µM)	> 32	> 32	> 32	> 32	2 (≈ 4.37 µM)	2 (≈ 4.37 µM)	1 (≈ 2.19 µM)	1 (≈ 2.19 µM)	> 32	1 (≈ 2.19 µM)	16 (≈ 35 µM)	1 (≈ 2.19 µM)	2 (≈ 4.37 µM)	1 (≈ 2.19 µM)
